Assay results reported in US10988459B2 (priority 2015, dated 2021).

Biological target: human RIP1 kinase domain (2-375) (Homo sapiens (Human), UniProt Q13546)
Experiment: biochemical
Format: biochemical
Settings: Table 1; apparent Ki (Morrison tight-binding fit); 50 nM RIP1 kinase domain, 50 uM ATP, 2 hours incubation; read-out: RIP1 Ki
Procedure, shortened: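 Ki^app comes from Morrison tight-binding fits of fractional activity versus compound concentration. Activity was read as ADP production, via tracer displacement lowering fluorescence polarization (633 nm laser). Conditions: 2 h, 50 nM insect-cell-expressed enzyme, 50 uM ATP, 30 mM MgCl2, 1 mM DTT, 0.5% DMSO, pH 7.5 Hepes.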

Sequence of human RIP1 kinase domain (2-375) (Q13546 2-375): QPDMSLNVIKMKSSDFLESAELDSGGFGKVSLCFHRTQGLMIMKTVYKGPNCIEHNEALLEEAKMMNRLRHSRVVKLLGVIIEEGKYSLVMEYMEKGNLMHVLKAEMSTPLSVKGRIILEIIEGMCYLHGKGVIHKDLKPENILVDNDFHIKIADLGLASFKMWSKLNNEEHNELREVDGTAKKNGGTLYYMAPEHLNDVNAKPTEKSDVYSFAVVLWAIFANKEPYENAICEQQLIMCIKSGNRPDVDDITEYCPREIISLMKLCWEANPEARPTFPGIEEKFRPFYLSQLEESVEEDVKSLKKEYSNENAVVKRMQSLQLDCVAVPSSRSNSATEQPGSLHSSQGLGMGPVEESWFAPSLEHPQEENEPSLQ

Row | SMILES | Ki [nM]
1 | CN1C(=O)[C@@H](NC(=O)c2n[nH]c3c2CC(n2cccn2)CC3)COc2ccccc21 (stereo partly drawn) [Example 20, N—((S)-5-methyl-4-oxo-2,3,4,5-tetrahydrobenzo[b][1,4]oxazepin-3-yl)-5-(1H-pyrazol-1-yl)-4,5,6,7-tetrahydro-1H-indazole-3-carboxamide] | 745
2 | CN1C(=O)[C@@H](NC(=O)c2n[nH]c3c2CC(C(F)(F)F)CC3)COc2ccccc21 (stereo partly drawn) [Example 34, N-((S)-5-methyl-4-oxo-2,3,4,5-tetrahydrobenzo[b][1,4]oxazepin-3-yl)-5-(trifluoromethyl)-4,5,6,7-tetrahydro-1H-indazole-3-carboxamide] | 7.68
3 | CN1C(=O)[C@@H](NC(=O)c2n[nH]c3c2CCC(c2ccccc2)C3)COc2ccccc21 (stereo partly drawn) [Example 12, N-(5-methyl-4-oxo-2,3,4,5-tetrahydrobenzo[b][1,4]oxazepin-3-yl)-6-phenyl-4,5,6,7-tetrahydro-1H-indazole-3-carboxamide] | > 3100

Same assay, conditions: Table 5; apparent Ki (Morrison tight-binding fit); 50 nM RIP1 kinase domain, 50 uM ATP, 2 hours incubation; read-out: Ki

Row | Ki [nM] | SMILES
4 | 86 | CCOCCc1cc2n(n1)CC[C@H](NC(=O)c1ncn(Cc3ccccc3)n1)C(=O)N2C [Example 758]
5 | 51 | COCCc1cc2n(n1)CC[C@H](NC(=O)c1ncn(Cc3ccccc3F)n1)C(=O)N2C [Example 768]
6 | 212 | Cc1nc(-c2cc3n(n2)CCC(NC(=O)c2ncn(Cc4ccccc4)n2)C(=O)N3C)cn1C (racemic) [Example 776, 1-benzyl-N-(2-(1,2-dimethyl-1H-imidazol-4-yl)-4-methyl-5-oxo-5,6,7,8-tetrahydro-4H-pyrazolo[1,5-a][1,3]diazepin-6-yl)-1H-1,2,4-triazole-3-carboxamide]
7 | 172 | COC1CN(Cc2cc3n(n2)CC[C@H](NC(=O)c2ncn(Cc4ccccc4)n2)C(=O)N3C)C1 [Example 781, (S)-1-benzyl-N-(2-((3-methoxyazetidin-1-yl)methyl)-4-methyl-5-oxo-5,6,7,8-tetrahydro-4H-pyrazolo[1,5-a][1,3]diazepin-6-yl)-1H-1,2,4-triazole-3-carboxamide]
8 | 61 | CN1C(=O)[C@@H](NC(=O)c2ncn(Cc3ccccc3)n2)CCn2nc(CO)cc21 (single isomer, unassigned) [Example 788]
9 | 116 | CN1C(=O)[C@@H](NC(=O)c2ncn(Cc3ccccc3)n2)CCn2nc(CCN3CCOCC3)cc21 [Example 752, 1-benzyl-N-[(6S)-4-methyl-2-(2-morpholinoethyl)-5-oxo-7,8-dihydro-6H-pyrazolo[1,5-a][1,3]diazepin-6-yl]-1,2,4-triazole-3-carboxamide]

Same assay, conditions: human RIP1 kinase domain (2-375), 50 uM ATP, 2 hours incubation, Transcreener ADP assay; read-out: RIP1 Ki

Row | Ki [nM] | SMILES
10 | 5100 | CC(C)n1ncc2c1OC[C@H](NC(=O)c1nnc(Cc3ccccc3)[nH]1)C(=O)N2 [Example 197, (S)-5-benzyl-N-(1-isopropyl-5-oxo-4,5,6,7-tetrahydro-1H-pyrazolo [3,4-b][1,4]oxazepin-6-yl)-4H-1,2,4-triazole-3-carboxamide]
11 | 123 | CN1C(=O)C(NC(=O)c2ncn(Cc3ccccc3)n2)CCn2ccnc21 (stereo not drawn) [Example 195, 1-benzyl-N-(9-methyl-8-oxo-6,7,8,9-tetrahydro-5H-imidazo[1,2-a][1,3]diazepin-7-yl)-1H-1,2,4-triazole-3-carboxamide]
12 | 316 | CN1C(=O)C(NC(=O)c2ncn(Cc3ccccc3)n2)CCn2nc3c(c21)CS(=O)(=O)C3 (stereo not drawn) [Example 140, 1-benzyl-N-(1-methyl-9,9-dioxido-2-oxo-1,2,3,4,5,10-hexahydro-8H-thieno[3′,4′:3,4]pyrazolo[1,5-a][1,3]diazepin-3-yl)-1H-1,2,4-triazole-3-carboxamide]

Same assay, conditions: human RIP1 kinase domain (2-375), Transcreener ADP assay, 50 uM ATP, 2 hours incubation; read-out: RIP1 Ki

Row | Ki [nM] | SMILES
13 | 93.6 | CC[C@@]1(C)OCc2cnc(C(=O)N[C@H]3CCn4nc(C)c(C)c4N(C)C3=O)cc21 [Example 276, (R)-1-ethyl-1-methyl-N—((S)-2,3,4-trimethyl-5-oxo-5,6,7,8-tetrahydro-4H-pyrazolo[1,5-a][1,3]diazepin-6-yl)-1,3-dihydrofuro[3,4-c]pyridine-6-carboxamide]
14 | 511 | Cc1cc2n(n1)CC[C@H](NC(=O)c1ncn(CC3CC3(F)F)n1)C(=O)N2C (stereo partly drawn) [Example 262, 1-((2,2-difluorocyclopropyl)methyl)-N—((S)-2,4-dimethyl-5-oxo-5,6,7,8-tetrahydro-4H-pyrazolo[1,5-a][1,3]diazepin-6-yl)-1H-1,2,4-triazole-3-carboxamide]
15 | 93.6 | Cc1cc2n(n1)CC[C@H](NC(=O)c1ncn(C(C)c3ccccc3)n1)C(=O)N2C (stereo partly drawn) [Example 271, N—((S)-2,4-dimethyl-5-oxo-5,6,7,8-tetrahydro-4H-pyrazolo[1,5-a][1,3]diazepin-6-yl)-1-(1-phenylethyl)-1H-1,2,4-triazole-3-carboxamide]
16 | 10.4 | Cc1cc2n(n1)CC[C@H](NC(=O)c1ncn(Cc3c(F)cccc3F)n1)C(=O)N2C [Example 301, (S)-1-(2,6-difluorobenzyl)-N-(2,4-dimethyl-5-oxo-5,6,7,8-tetrahydro-4H-pyrazolo[1,5-a][1,3]diazepin-6-yl)-1H-1,2,4-triazole-3-carboxamide]

Same assay, conditions: read-out: RIP1 Ki

Row | SMILES | Ki [nM]
17 | C[C@@H]1CCc2[nH]nc(C(=O)N[C@H]3COc4ccccc4N(C)C3=O)c2C1 [Example 60, (R)-5-methyl-N-((S)-5-methyl-4-oxo-2,3,4,5-tetrahydrobenzo[b][1,4]oxazepin-3-yl)-4,5,6,7-tetrahydro-1H-indazole-3-carboxamide] | 15.6

Same assay, conditions: tight-binding apparent inhibition constant; human RIP1 kinase domain (2-375) 50 nM, 50 uM ATP, 2 hours; read-out: Ki

Row | SMILES | Ki [nM]
18 | O=C(N[C@H]1COc2cc(F)cc(F)c2NC1=O)c1ncc2c(n1)C1(CCC1)OC2 [Example 617, N-[(3S)-6,8-difluoro-4-oxo-3,5-dihydro-2H-1,5-benzoxazepin-3-yl]spiro[5H-furo[3,4-d]pyrimidine-7,1′-cyclobutane]-2-carboxamide] | 11
19 | CN1C(=O)[C@@H](NC(=O)c2nc3cccc(-c4c(F)cccc4F)n3n2)CCn2nccc21 [Example 394, (S)-5-(2,6-difluorophenyl)-N-(4-methyl-5-oxo-5,6,7,8-tetrahydro-4H-pyrazolo[1,5-a][1,3]diazepin-6-yl)-[1,2,4]triazolo[1,5-a]pyridine-2-carboxamide] | 6.04
20 | Cc1cc2n(n1)CC[C@H](NC(=O)c1ncn(C[C@H]3C[C@H](C(F)(F)F)C3)n1)C(=O)N2C [Example 483] | 110
21 | Cc1cc(F)c2c(c1)OC[C@H](NC(=O)c1nc3n(n1)[C@H](C(F)(F)F)CCC3)C(=O)N2 (single isomer, unassigned) [Example 428] | 8.14
22 | CN1C(=O)[C@@H](NC(=O)c2nc3n(n2)C(c2c(F)cccc2F)CCC3)CCn2nccc21 (stereo partly drawn) [Example 396, 5-(2,6-difluorophenyl)-N—((S)-4-methyl-5-oxo-5,6,7,8-tetrahydro-4H-pyrazolo[1,5-a][1,3]diazepin-6-yl)-5,6,7,8-tetrahydro-[1,2,4]triazolo[1,5-a]pyridine-2-carboxamide] | 152
23 | O=C(N[C@H]1CCc2cc(F)cc(F)c2NC1=O)c1ncc2c(n1)C1(CCC1)OC2 [Example 618] | 24
24 | CC(C)[C@H]1CCCc2nc(C(=O)N[C@H]3COc4ccccc4N(C)C3=O)nn21 (single isomer, unassigned) [Example 413] | 227
25 | CN1C(=O)[C@@H](NC(=O)c2ncc3n2CC(CC(F)(F)F)CC3)COc2ccccc21 (stereo partly drawn) [Example 469, N-[(3S)-5-methyl-4-oxo-2,3-dihydro-1,5-benzoxazepin-3-yl]-6-(2,2,2-trifluoroethyl)-5,6,7,8-tetrahydroimidazo[1,5-a]pyridine-3-carboxamide] | 1000
26 | CN1C(=O)[C@@H](NC(=O)c2nc3n(n2)C(C2CCOC2)CCC3)CCn2nccc21 (stereo partly drawn) [Example 390, N—((S)-4-methyl-5-oxo-5,6,7,8-tetrahydro-4H-pyrazolo[1,5-a][1,3]diazepin-6-yl)-5-(tetra hydrofuran-3-yl)-5,6,7,8-tetrahydro-[1,2,4]triazolo[1,5-a]pyridine-2-carboxamide] | 3000
27 | CC[C@H]1C[C@H](Cn2cnc(C(=O)N[C@H]3CCn4nc(C)cc4N(C)C3=O)n2)C1 [Example 501, N—((S)-2,4-dimethyl-5-oxo-5,6,7,8-tetrahydro-4H-pyrazolo[1,5-a][1,3]diazepin-6-yl)-1-(((1S,3S)-3-ethylcyclobutyl)methyl)-1H-1,2,4-triazole-3-carboxamide] | 67

Continued, values first:

Row | Ki [nM] | SMILES
28 | 20 | CN1C(=O)[C@@H](NC(=O)c2ncn(Cc3ccccc3F)n2)CCn2nc(C(F)(F)F)cc21 [Example 526]
29 | 290 | Cc1cc2n(n1)CC[C@H](NC(=O)c1ncn(Cc3ccccn3)n1)C(=O)N2C [Example 651, 1-(2-pyridylmethyl)-N-(6S)-2,4-dimethyl-5-oxo-7,8-dihydro-6H-pyrazolo[1,5-a][1,3]diazepin-6-yl-1,2,4-triazole-3-carboxamide]
30 | 47 | COc1ccccc1Cn1cnc(C(=O)N[C@H]2CCn3nccc3N(C)C2=O)n1 [Example 587, 1-[(2-methoxyphenyl)methyl]-N-(6S)-4-methyl-5-oxo-7,8-dihydro-6H-pyrazolo[1,5-a][1, 3]diazepin-6-yl-1,2,4-triazole-3-carboxamide]
31 | 19 | CN1C(=O)[C@@H](NC(=O)c2ncn(Cc3cccc(Cl)c3)n2)CCn2nc(C3CC3)cc21 [Example 538]
32 | 161 | CC(O)c1cc2n(n1)CC[C@H](NC(=O)c1ncn(Cc3ccccc3)n1)C(=O)N2C (single isomer, unassigned) [Example 367]
33 | 43 | Cc1cc2n(n1)CC[C@H](NC(=O)c1ncn(CC3CC(C)(C)C3)n1)C(=O)N2C [Example 555, 1-[(3,3-dimethylcyclobutyl)methyl]-N-(6S)-2,4-dimethyl-5-oxo-7,8-dihydro-6H-pyrazolo[1,5-a][1,3]diazepin-6-yl-1,2,4-triazole-3-carboxamide]
